The text below walks through data of patent publication US20230293509A1, “METHOD AND COMPOUND FOR USE, IN TREATING AND/OR PREVENTING NETOSIS” (JUBILANT EPIPAD LLC, priority 2020, published 2023).

In data set [1] the test system is silica induced lung fibrosis. Nature of the data set: Silica induced pro-fibrotic lung model. It counts as in vivo, C57BL/6 female mice. The note with it: 50 mg/kg PO, BID, day 7 to 11, comparable to Nintedanib 100 mg/kg, QD. Here is the method:
The instillation of silica into the murine lung results in the development of fibrotic nodules that resemble simple silicotic nodular fibrosis, which develop in humans following some occupational exposures to dust and particulate aerosols. Silica can be delivered to rodents via aerosolization, intratracheal administration or oropharyngeal aspiration. C57BL/6 female mice at an age of 6-8 weeks were instilled with silica particles (2.5 mg/mouse) by non-surgical intratracheal (IT) method. The day of silica instillation was defined as day 0. Test compound was administered twice daily and standard of care was dosed once daily from day 7 to 11 for therapeutic intervention. Animals were monitored and evaluated for their clinical signs and body weight loss. Animals were euthanized on day 11 and the lungs were weighed and biomarkers were analyzed in lung.

A further data set relates to EMT-6 cells. Briefly: Murine breast cancer efficacy model, EMT-6 allograft. The settings on record: EMT-6 bearing mice, oral gavage twice daily for 13 days. It counts as in vivo, Balb/C female mice. The method, then: (§1) PAD4 is highly expressed in malignant tumours of various cell types, Here, the mouse mammary carcinoma of 4T1 and EMT6 cells were used as an experimental model. Mouse 4T1, and EMT-6, a breast cancer cell line was sourced from American Type Culture Collection (ATCC), USA. Cells were grown according to the product information. To establish allografts, the cells were harvested by trypsinization when they reached around 70 to 80% confluence. After harvesting, Balb/C female mice (7-8 weeks) were implanted with 4T1 (1 million cells/site) and EMT-6 (0.5 million cells/site) subcutaneously in the dorsal right flank of mice using a 1 mL BD syringe attached to a 24-gauge needle. When the tumors became palpable tumor measurement was initiated and at an approximate tumor volume of ˜110 and 93 mm3, respectively. Animals were randomized into different treatment groups keeping tumor volume and the number of animals/group similar across the groups and compound 143 treatment was initiated. […]
(§2) Tumor dimensions (length and breadth) were measured on days 1 (animal randomization based on tumor volume) and thrice weekly thereafter until study termination.
(§3) Tumor volumes were calculated using the formula (b2*1)*0.52 where 1=length, b=breadth (Dusan Djokovic et al., BMC Cancer, 2010, 10:641). […]

Data set [2] has as its system Bleomycin (BLM)-induced mice fibrosis. Nature of the data set: Bleomycin induced lung fibrosis model. It counts as in vivo, C57BL/6 male mice. The note with it: 50 mg/kg, PO, BID. From the text: Bleomycin (BLM)-induced mice fibrosis is a well-established animal model used to study pathogenesis of lung fibrosis and to estimate the potential anti-fibrotic agents. C57BL/6 male mice at 6-8 weeks of age were purchased from vivo biotech India (under the license from Taconic). The procedures involving the care and use of animals in the study was reviewed and approved by the Institutional Animal Care and Use Committee (IAEC/JDC/2018-161R) prior to conduct. During the study, the care and use of animals was in accordance with the principles outlined in the Guide for the Care and Use of Laboratory Animals, 8th Edition, 2010 (National Research Council) and every effort was made to minimize suffering. The animals were acclimatized for 7 days prior to experimental use. Mice were caged with free access to food and fresh water in a temperature-controlled room (22° C.-24° C.) on a 12 h light/dark cycle. Pulmonary fibrosis was induced by invasive method in animals using single intra-tracheal administration of 50 μg bleomycin prepared in 50 μL of saline under isoflurane anaesthesia. […] Animals were monitored and evaluated for their body weight loss. […] Fibronectin was measured as a PD biomarker by RT-qPCR and fold change in mRNA level was calculated after normalizing to GAPDH. […] The Modified Ashcroft Index score was determined for the vehicle-treated control mice and the test compound treated mice.

Another data set deals with 4T1 cells. Nature of the data set: Murine breast cancer efficacy model, 4T1 allograft. It is filed as in vivo, Balb/C female mice. The settings on record: 4T1 bearing mice, oral gavage twice daily for 14 days. The method, then:
as §1, §2, §3

The next data set concerns DSS-induced colitis. Briefly: Dextran sulfate sodium (DSS) induced colitis model. It counts as in vivo, C57BL/6 male mice. The settings on record: 1 mg/kg, QD, oral; day 10. From the text: Ulcerative colitis (UC) is an intermittent inflammatory bowel disease of the colonic mucosa, with periods of exacerbated symptoms (the active phase of the disease), and periods that are relatively symptom-free (remission phase of disease). Among various chemical induced colitis models, DSS-induced colitis model is widely used because of its simplicity and many similarities with human ulcerative colitis. C57BL/6 male mice at 6-8 weeks of age were purchased from vivo biotech India (under the license from Taconic). The procedures involving the care and use of animals in the study was reviewed and approved by the Institutional Animal Care and Use Committee (IAEC/JDC/2018-161R) prior to conduct. During the study, the care and use of animals was in accordance with the principles outlined in the Guide for the Care and Use of Laboratory Animals, 8th Edition, 2010 (National Research Council) and every effort was made to minimize suffering. The animals were acclimatized for ˜10 days prior to experimental use. Mice were caged with free access to food and fresh water in a temperature-controlled room (22° C.-24° C.) on a 12 h light/dark cycle. […]

As to `N[C@@H]1CCCN(C(=O)c2cc3c4c(c2)nc(-c2cc5cccc(Cl)c5n2CC2CC2)n4CCO3)C1` [Compound 143, (R)-(3-aminopiperidin-1-yl)(2-(7-chloro-1-(cyclopropylmethyl)-1H-indol-2-yl)-3,4-dihydro-5-oxa-1,2a-diazaacenaphthylen-7-yl)methanone], the “Fibronectin level in lung” value in data set [1] is “significant decrease”. Further, the Lung weight entry is “significant decrease” in data set [1] and “reduction in lung weight comparable to standard of care Nintedanib” in data set [2] (day 0 to 14, compared with Nintedanib 100 mg/kg, QD). Further, the Body weight changes result in the data set with EMT-6 cells and in the data set with 4T1 cells was “no significant body weight changes” throughout. Further, the “Fibronectin mRNA in lung (RT-qPCR)” value in data set [2] (day 0 to 14, compared with Nintedanib) is “stronger reduction of fibronectin mRNA as compared to Nintedanib”.

As to `CCCCCCCCc1ccc(CCC(N)(CO)CO)cc1` [Fingolimod], in the data set on DSS-induced colitis, the “Disease reversal (DAI) compared to disease control” value was roughly 58.9%.
